{"source": "paper PMC5686178", "about": "“Antimicrobial peptides in frog poisons constitute a molecular toxin delivery system against predators” (Nature Communications, 2017)", "key": {"[1]": {"test_system": "Caco-2 monolayers", "test": "Scanning electron microscopy of Caco-2 monolayers", "type": "cell-based, Human", "details": "fixation 5 min after administration", "description": "Caco-2 cells were seeded on glass coverslips that were coated with rat tail collagen 1 (Sigma-Aldrich) the day before. The effect of four treatments (100 µM CPF, 100 µM caerulein, 100 µM CPF + caerulein, and a negative control) on differentiated Caco-2 monolayers was visualized. Chemical fixation was performed in 12-well culture plates 5 min after peptide administration (700 µl of solution in all treatments). For fixation, plate wells were filled with 1 ml 2,5% glutaraldehyde in 0.05 M sodium cacodylate buffer (pH 7.4; 37 °C) for 20 min, and subsequently washed twice with the same buffer. Postfixation was performed with 1% osmium tetroxide for 30 min, followed by three rinses with double-distilled water. Dehydration was carried out using a graded hexylene glycol series: 30; 50; 70; and 90%, taking 15 min for each step. Cells were rinsed three times for 10 min with 100% hexylene glycol, and then two more times for 10 min with 100% ethanol. Critical-point drying of coverslips was done using a Balzers union CPD020. Dried coverslips were mounted on carbon-coated stubs with double-sided conductive tape. Gold coating happened with a Jeol 1200JFC fine coater, after which coverslips were examined with a Jeol JSM-840 scanning electron microscope operating at 12 kV."}, "[2]": {"details": "ref [8],[23]; cited from earlier work", "text": "As the main model for our study, we used a peptide pair composed of the systemic toxin caerulein, and the AMP caerulein precursor fragment-3 (CPF), both of which are key constituents of the skin secretion of the frog Xenopus laevis [18]–[20] (Fig. 1b). Caerulein is a potent ligand of cholecystokinin receptors expressed in the vertebrate intestine, pancreas, and brain[9], and at sufficiently high concentrations, may induce nausea, hypotension, intestinal cramps, vomiting, and diarrhea[9],[21],[22]. Even in the intestine, the target receptors are only accessible by means of epithelial absorption ..."}, "[3]": {"test_system": "other vertebrates", "details": "intravenous, ref [9],[21],[22], cited from earlier work"}, "[4]": {"test_system": "Caco-2 monolayers", "test": "Transepithelial toxin passage across Caco-2 monolayers (ELISA)", "details": "60 min"}, "[5]": {"test_system": "EpiOral 3D tissues", "test": "Transepithelial toxin passage across EpiOral multilayered oral epithelial model (ELISA)", "type": "in vitro ADME", "details": "8-11 stacked cell layers, 60 min, n = 8, vs caerulein alone"}, "[6]": {"details": "Caco-2 monolayer, apical to basolateral, 20 nmol caerulein + 20 nmol CPF (100 µM both) apical, ELISA, n = 9"}}, "note": "Where a SMILES comes first, the peptide text is derived from it. Where no end group is shown, it is not given here. [ ]: non-standard residue; d: D form. sY = N[C@@H](Cc1ccc(OS(=O)(=O)O)cc1)C(=O)O; pGlu = O=C1CC[C@@H](C(=O)O)N1", "data": [{"compound": "CSCC[C@H](NC(=O)[C@H](Cc1c[nH]c2ccccc12)NC(=O)CNC(=O)[C@@H](NC(=O)[C@H](Cc1ccc(OS(=O)(=O)O)cc1)NC(=O)[C@H](CC(=O)O)NC(=O)[C@H](CCC(N)=O)NC(=O)[C@@H]1CCC(=O)N1)[C@@H](C)O)C(=O)N[C@@H](CC(=O)O)C(=O)N[C@@H](Cc1ccccc1)C(N)=O", "note": "[caerulein] ([pGlu]QD[sY]TGWMDF-NH2)", "values": [{"measurement": "Damage to Caco-2 monolayers by SEM, toxin alone", "setting": "[1]; 100 µM caerulein", "result": "does not damage Caco-2 monolayers"}, {"measurement": "Half-life in the bloodstream", "setting": "[2]", "result": "up to 45 min"}, {"measurement": "Intravenously injected dose that caused severe sickness, molar", "setting": "[3]; converted from 1 μg/kg BW", "result": 0.74, "unit": "pmol/g BW"}, {"measurement": "Intravenously injected dose that caused severe sickness", "setting": "[3]", "result": 1, "unit": "μg/kg BW"}, {"measurement": "Transepithelial passage of caerulein, % of applied dose at basolateral side", "setting": "[4]; Caco-2 monolayer on collagen-coated transwell 0.4 µm, apical to basolateral, caerulein alone 100 µM (20 nmol) apical, apical 200 µL / basolateral 1000 µL, ELISA, n = 9", "result": "0.3 – 1%"}, {"measurement": "Transepithelial passage of caerulein, % of applied dose at basolateral side, CPF co-administered", "setting": "[4]; [6]", "result": "2.3–6.8%"}, {"measurement": "Transepithelial passage of caerulein, amount at basolateral side, CPF co-administered", "setting": "[4]; [6]", "result": "0.45 to 1.36", "unit": "nmol"}, {"measurement": "Transepithelial passage of caerulein, amount at basolateral side", "setting": "[4]; Caco-2 monolayer, apical to basolateral, caerulein alone 100 µM (20 nmol) apical, ELISA, n = 9", "result": "0.06 to 0.20", "unit": "nmol"}]}, {"compound": "GFGSFLGKALKAALKIGANALGGSPQQ [CPF, caerulein precursor fragment-3]", "values": [{"measurement": "Increase in caerulein passage by co-administered CPF, oral multilayer model", "setting": "[5]", "result": "nearly fivefold increase"}, {"measurement": "Damage to Caco-2 monolayers by SEM, CPF present", "setting": "[1]; 100 µM CPF + caerulein", "result": "abundant intercellular ruptures in the monolayer"}, {"measurement": "Increase in rate of transepithelial passage of caerulein by co-administered CPF", "setting": "[4]; Caco-2 monolayer, 100 µM both, on average, vs caerulein alone", "result": "near sevenfold increase"}]}, {"compound": "GIGASILSAGKSALKGLAKGLAEHFAN-NH2 [BLP, bombinin-like peptide 1]", "values": [{"measurement": "Enhancement of transepithelial passage of bombesin by co-administered BLP", "setting": "[4]; Caco-2 monolayer, 100 µM both apical, ELISA, n = 9, vs toxin alone", "result": "~ 4.5 times"}]}]}
